Measured values taken from US9738902B2, “Modified PYR/PYL receptors activated by ligands” (priority 2013, dated 2017).

Legend:
[1] = molecular target: T1, PYR1 K59R A89I (Arabidopsis thaliana, UniProt O49686, A89I/K59R); experiment: Y2H Pocket Library Screen (HAB1, X-gal); type: cell-based
T1 construct: expressed in transfected cells; host or cells: S. cerevisiae Y190 yeast two-hybrid reporter strain
Experimental: (§1) The set of 475 mutant plasmids were individually transformed into the Y190 yeast two hybrid reporter strain co-transformed with pACT-HAB1, as previously described (Park et al., 2009). The yeast strains generated were arrayed into 96-well plates yielding what we refer to as the “pocket library”. The pocket library strains were spotted onto agar plates containing selective synthetic dextrose (minus Leu & Trp) medium that was supplemented with a single test compound at 100 μM. The pocket library strains were separately tested for responsiveness to the following compounds: dichlobenil, benzothiadiazole, mandipropamid, fludioxonil, and benoxacor. After incubating test plates at 30° C. for two days, colonies were chloroform lysed and stained to reveal β-galactosidase expression levels, using previously described methods (Park et al., 2009). Mutants displaying responsiveness to the test compound, if present, were identified by virtue of X-gal staining and then subjected to subsequent optimization efforts. Using this approach we identified mutations that conferred detectable sensitivity to the compounds tested (see entries labeled “Pocket Library Screens” in Table 1).

[2] = molecular target: T2, PYR1 K59R A89W (Arabidopsis thaliana, UniProt O49686, A89W/K59R); experiment: Y2H Pocket Library Screen (HAB1, X-gal); type: cell-based
T2 construct: expressed in transfected cells; host or cells: S. cerevisiae Y190 yeast two-hybrid reporter strain
T2 sequence (O49686 whole entry K59R/A89W): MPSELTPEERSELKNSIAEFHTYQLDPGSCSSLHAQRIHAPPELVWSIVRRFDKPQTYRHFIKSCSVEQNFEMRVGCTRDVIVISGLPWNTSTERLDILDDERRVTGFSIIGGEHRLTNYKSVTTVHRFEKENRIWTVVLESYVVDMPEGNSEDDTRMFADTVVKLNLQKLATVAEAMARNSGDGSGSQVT
T2 sequence (Q9CAJ0 23-511, further chain): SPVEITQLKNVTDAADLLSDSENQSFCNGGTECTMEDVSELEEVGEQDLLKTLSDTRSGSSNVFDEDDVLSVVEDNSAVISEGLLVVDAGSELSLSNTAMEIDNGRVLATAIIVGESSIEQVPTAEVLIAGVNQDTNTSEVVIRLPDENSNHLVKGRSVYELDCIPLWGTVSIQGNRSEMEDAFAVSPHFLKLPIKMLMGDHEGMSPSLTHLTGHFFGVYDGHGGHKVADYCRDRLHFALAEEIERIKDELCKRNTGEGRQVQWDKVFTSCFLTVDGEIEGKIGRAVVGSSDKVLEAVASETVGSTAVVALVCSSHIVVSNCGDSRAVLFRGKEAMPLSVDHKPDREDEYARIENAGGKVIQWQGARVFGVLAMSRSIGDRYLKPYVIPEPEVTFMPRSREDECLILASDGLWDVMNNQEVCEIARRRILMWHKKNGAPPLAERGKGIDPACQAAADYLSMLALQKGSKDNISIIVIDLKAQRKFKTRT
Experimental: as §1

[3] = molecular target: T3, PYR1 K59R F159V (Arabidopsis thaliana, UniProt O49686, F159V/K59R); experiment: Y2H Pocket Library Screen (HAB1, X-gal); type: cell-based
T3 construct: expressed in transfected cells; host or cells: S. cerevisiae Y190
T3 sequence (O49686 whole entry K59R/F159V): as the sequence (O49686 whole entry K59R/A89W) above, with W89A, F159V counted along it
T3 sequence (Q9CAJ0 23-511, further chain): as the sequence (Q9CAJ0 23-511, further chain) above
Experimental: as §1

[4] = molecular target: T4, PYR1 K59R L87F (Arabidopsis thaliana, UniProt O49686, K59R/L87F); experiment: Y2H Pocket Library Screen (HAB1, X-gal); type: cell-based
T4 construct: expressed in transfected cells; host or cells: S. cerevisiae Y190 yeast two-hybrid reporter strain
T4 sequence (O49686 whole entry K59R/L87F): as the sequence (O49686 whole entry K59R/A89W) above, with L87F, W89A counted along it
T4 sequence (Q9CAJ0 23-511, further chain): as the sequence (Q9CAJ0 23-511, further chain) above
Experimental: as §1

[5] = molecular target: T5, PYR1 K59R M158C (Arabidopsis thaliana, UniProt O49686, K59R/M158C); experiment: Y2H Pocket Library Screen (HAB1, X-gal); type: cell-based
T5 construct: expressed in transfected cells; host or cells: S. cerevisiae Y190 two-hybrid reporter strain
T5 sequence (O49686 whole entry K59R/M158C): as the sequence (O49686 whole entry K59R/A89W) above, with W89A, M158C counted along it
T5 sequence (Q9CAJ0 23-511, further chain): as the sequence (Q9CAJ0 23-511, further chain) above
Experimental: as §1

[6] = molecular target: T6, PYR1 K59R M158T (Arabidopsis thaliana, UniProt O49686, K59R/M158T); experiment: Y2H Pocket Library Screen (HAB1, X-gal); type: cell-based
T6 construct: expressed in transfected cells; host or cells: S. cerevisiae Y190 two-hybrid reporter strain
T6 sequence (Q9CAJ0 23-511): as the sequence (Q9CAJ0 23-511, further chain) above
T6 sequence (O49686 whole entry K59R/M158T): as the sequence (O49686 whole entry K59R/A89W) above, with W89A, M158T counted along it
Experimental: as §1

[7] = molecular target: T7, PYR1 K59R M158V (Arabidopsis thaliana, UniProt O49686, K59R/M158V); experiment: Y2H Pocket Library Screen (HAB1, X-gal); type: cell-based
T7 construct: expressed in transfected cells; host or cells: S. cerevisiae Y190 two-hybrid reporter strain
T7 sequence (O49686 whole entry K59R/M158V): as the sequence (O49686 whole entry K59R/A89W) above, with W89A, M158V counted along it
T7 sequence (Q9CAJ0 23-511, further chain): as the sequence (Q9CAJ0 23-511, further chain) above
Experimental: as §1

[8] = molecular target: T8, PYR1 K59R S92I (Arabidopsis thaliana, UniProt O49686, K59R/S92I); experiment: Y2H Pocket Library Screen (HAB1, X-gal); type: cell-based
T8 construct: expressed in transfected cells; host or cells: S. cerevisiae Y190 yeast two-hybrid reporter strain
T8 sequence (O49686 whole entry K59R/S92I): as the sequence (O49686 whole entry K59R/A89W) above, with W89A, S92I counted along it
T8 sequence (Q9CAJ0 23-511, further chain): as the sequence (Q9CAJ0 23-511, further chain) above
Experimental: as §1

[9] = molecular target: T9, PYR1 K59R S92W (Arabidopsis thaliana, UniProt O49686, K59R/S92W); experiment: Y2H Pocket Library Screen (HAB1, X-gal); type: cell-based
T9 construct: expressed in transfected cells; host or cells: S. cerevisiae Y190 yeast two-hybrid reporter strain
T9 sequence (Q9CAJ0 23-511): as the sequence (Q9CAJ0 23-511, further chain) above
T9 sequence (O49686 whole entry K59R/S92W): as the sequence (O49686 whole entry K59R/A89W) above, with W89A, S92W counted along it
Experimental: as §1

[10] = molecular target: T10, PYR1 K59R T162W (Arabidopsis thaliana, UniProt O49686, K59R/T162W); experiment: Y2H Pocket Library Screen (HAB1, X-gal); type: cell-based
T10 construct: expressed in transfected cells; host or cells: S. cerevisiae Y190
T10 sequence (O49686 whole entry K59R/T162W): as the sequence (O49686 whole entry K59R/A89W) above, with W89A, T162W counted along it
T10 sequence (Q9CAJ0 23-511, further chain): as the sequence (Q9CAJ0 23-511, further chain) above
Experimental: as §1

[11] = molecular target: T11, PYR1 K59R A89I S92I (Arabidopsis thaliana, UniProt O49686, A89I/K59R/S92I); experiment: Y2H Combinatorial Mutagenesis Screen I (HAB1, X-gal); type: cell-based
T11 construct: expressed in transfected cells; host or cells: S. cerevisiae Y190 two-hybrid reporter strain
T11 sequence (O49686 whole entry K59R/A89I/S92I): as the sequence (O49686 whole entry K59R/A89W) above, with W89I, S92I counted along it
T11 sequence (Q9CAJ0 23-511, further chain): as the sequence (Q9CAJ0 23-511, further chain) above
From the text: (§2) This screening approach yielded mutants at ligand contacting residues that alter sensitivity to specific ligands. We reasoned that receptor sensitivity could be improved by systematically constructing combinations of the best mutant variants identified in the first round of screening. To test this, we constructed mutant combinations using the strongest mutations identified for mandipropamid, benzothiadiazole, benoxacor or fludioxonil sensitivity. The mutations selected for combinatorial mutagenesis are listed in bold type in Table 1; The mutant combinations were constructed using the QuickChange Lightning Multi Site-Directed PCR Mutagenesis kit (Agilent, USA) using pBD-PYR1^K59R template DNA and mutagenic primers, essentially as previously described (Mosquna et al., 2011). The mutant combinations were sequence validated, introduced into the pACT-HAB1 Y190 reporter strain and then tested for responsiveness to a range of compound concentrations (100, 50, 25, 10, 1, 0.2, 0.1 or 0 μM each test compound). These efforts yielded double mutant receptor variants with improved sensitivity for the 4 compound/receptor pairs examined (see entries labeled “Combinatorial Mutagenesis Screen I” in Table 1).

[12] = molecular target: T12, PYR1 K59R A89I S92W (Arabidopsis thaliana, UniProt O49686, A89I/K59R/S92W); experiment: as above; type: cell-based
T12 construct: expressed in transfected cells; host or cells: S. cerevisiae Y190 two-hybrid reporter strain
T12 sequence (Q9CAJ0 23-511): as the sequence (Q9CAJ0 23-511, further chain) above
T12 sequence (O49686 whole entry K59R/A89I/S92W): as the sequence (O49686 whole entry K59R/A89W) above, with W89I, S92W counted along it
From the text: as §2

[13] = molecular target: T13, GST-HAB1 with 6×-His-PYR1^MANDI (Arabidopsis thaliana, UniProt O49686, F108A/F159L/K59R/S122G/V81I/Y58H); experiment: PP2C enzyme inhibition assay (4-methylumbelliferyl-phosphate); type: biochemical; details: PYR1^MANDI with GST-HAB1, GST-ABI1, GST-ABI2
T13 construct: made in house; host or cells: E. coli BL21[DE3]pLysS (receptor)
T13 sequence (Q9CAJ0 23-511): as the sequence (Q9CAJ0 23-511, further chain) above
T13 sequence (O49686 whole entry Y58H/K59R/V81I/F108A/S122G/F159L): as the sequence (O49686 whole entry K59R/A89W) above, with Y58H, V81I, W89A, F108A, S122G, F159L counted along it
Experimental: We next characterized the effects of recombinant PYR1^MANDI on PP2C activity using the fluorogenic substrate 4-methylumbelliferyl-phosphate. Recombinant receptor and PP2C proteins were prepared as described above and used to examine PP2C inactivation in response to mandipropamid or ABA. Enzyme inhibition assays were conducted using the following assay conditions: 100 nM 6×-His-PYR1^MANDI, 50 nM GST-PP2C, 100 mM Tris-OAc (pH 7.9), 100 mM NaCl, 1 mM MnCl2, 1% β-mercaptoethanol. […] The three ABA-regulated clade A PP2Cs, GST-HAB1, GST-ABI1 and GST-ABI2 were each tested under the same enzyme conditions in separate reactions. The assays were conducted at a variety of mandipropamid or ABA concentrations so that IC50 values could be determined. […] Thus, the PYR1^MANDI receptor is highly sensitive to activation by mandipropamid and interacts with multiple clade A PP2Cs in response to mandipropamid. This high level of sensitivity is consistent with the yeast two hybrid results described above in which a detectable interaction between PYR1^MANDI and HAB1 could be observed at concentrations as low as 2 nM (see Table 1). We note that the yeast two hybrid reporter systems requires only a small percentage of PYR1^MANDI receptors to bind HAB1 for an interaction signal and is therefore a potentially more sensitive indicator than in vitro assays. […] Thus these in vitro assays confirm that PYR1^MANDI is selectively activated by mandipropamid.

[14] = system: PYR1-OX; experiment: qRT-PCR of ABA-regulated genes RD29B and RAB18; type: in vivo, Arabidopsis; details: 50 μM ABA, 8 hours
Experimental: One of ABA's major effects is to regulate gene expression. We therefore examined the effects of ABA and mandipropamid on gene expression in wild type, PYR-OX, MDP1 and MPD2 transgenic plants. Seed of the wild type or transgenic lines were surface sterilized, stratified for 4 days at 4° C. and then grown for 10 days at room temperature under continuous illumination in a liquid culture consisting of 0.5×MS salts and 0.5% sucrose and grown with continuous shaking to provide aeration. After 10 days, the culture solutions were adjusted to contain 50 μM ABA, 2 μM mandipropamid, or a mock treatment. After 8 hours exposure to the test compounds RNA was isolated using RNAEasy™ Plant RNA isolation kit (Qiagen, USA) and treated with DNAse. The purified RNA was utilized in qRT-PCR reactions using primers for the ABA-regulated genes RD29B or RAB18. Biological triplicate and triple technical replicate measurements were conducted. To perform qRT-PCR analyses, cDNA was generated from 5 μg of total RNA using superscript reverse transcriptase III (Invitrogen, USA), in reaction mixture containing a oligo-dT20 (SEQ ID NO:110) and a ribosomal RNA primer. Real-time quantitative PCR analysis was performed by ΔCt method of relative quantification. PCR mixtures contained cDNA, Maxima® SYBR green/Fluorescein qPCR master mix (Fermentas, USA) and 330 nM of each gene-specific primer. RT-PCRs were conducted using a BioRad CFX96 Real-Time PCR System and the data were processed using the BioRad CFX Manager software (BioRad, USA). PCRs were performed under the following cycling conditions: 3 min at 95° C., followed by 40 cycles of 10 sec at 95° C., 10 sec at 55° C. and 30 sec at 72° C. in 96-well optical reaction plates (BioRad, USA). The specificity of amplicons was verified by melting curve (disassociation) analysis (60-95° C.) after 40 cycles. Input cDNA was normalized using an internal control gene, PEX4 (AT5G25760).

T1 sequence (O49686 whole entry K59R/A89I): as the sequence (O49686 whole entry K59R/A89W) above, with W89I counted along it
T1 sequence (Q9CAJ0 23-511, further chain): as the sequence (Q9CAJ0 23-511, further chain) above

Row | Compound | Threshold [1] [µM] | Threshold [2] [µM] | Threshold [3] [µM] | Threshold [4] [µM] | Threshold [5] [µM] | Threshold [6] [µM] | Threshold [7] [µM] | Threshold [8] [µM] | Threshold [9] [µM] | Threshold [10] [µM] | Threshold [11] [µM] | Threshold [12] [µM] | activation of the receptors by ABA [13] | levels of RAB18 and RD29 induced by ABA, compared with wild type [14]
1 | CC1COc2ccccc2N1C(=O)C(Cl)Cl (centres unmarked) [Benoxacor, benoxacor] | 100 | 100 | 100 | 100 | 100 | 100 | 100 | 50 | 50 | 50 | 50 | 50 |  | 
2 | CC1=CC(=O)CC(C)(C)[C@@]1(O)/C=C/C(C)=C\C(=O)O [ABA, abscisic acid] |  |  |  |  |  |  |  |  |  |  |  |  | not appreciably activated | higher
